Results reported in patent US20240182445A1 (ONO PHARMACEUTICAL CO., LTD., priority 2019, published 2024).

These compounds were tested against T1, human TREK-1 (Homo sapiens, UniProt O95069) (assay: TREK-1 Thallium (Tl+) flux assay, Method 1). Conditions: TREK-1 Thallium (Tl+) flux assay, Method 1.
T1 construct: expressed in transfected cells
T1 sequence (O95069 1-426): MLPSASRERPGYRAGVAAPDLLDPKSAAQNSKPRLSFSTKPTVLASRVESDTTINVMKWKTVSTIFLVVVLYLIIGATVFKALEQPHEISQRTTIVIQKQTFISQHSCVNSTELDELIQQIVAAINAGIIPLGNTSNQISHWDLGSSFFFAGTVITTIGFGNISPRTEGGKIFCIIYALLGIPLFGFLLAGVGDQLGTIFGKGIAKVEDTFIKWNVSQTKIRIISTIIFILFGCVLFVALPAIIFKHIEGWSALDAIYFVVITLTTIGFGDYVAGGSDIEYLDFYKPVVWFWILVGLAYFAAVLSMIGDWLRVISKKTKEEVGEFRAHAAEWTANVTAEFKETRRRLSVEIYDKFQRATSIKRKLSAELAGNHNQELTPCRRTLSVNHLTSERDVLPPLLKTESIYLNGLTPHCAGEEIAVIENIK
Type: cell-based
Description: The term “thallium flux assay” herein refers to a fluorescence-based assay used to monitor the activity of TREK channels. Thallium is a congener of potassium that readily fluxes through the pore of TREK channels. Thallium flux is measured using a commercially available, thallium-sensitive fluorescent dye called Thallos. The detail method is described below.
CHO-K1 cells stably expressing human TREK-1 were plated in 384-well plates, cultured overnight, loaded with Thallos dye the following day. Test compounds or control compound (tert-butyl (3-((4-(benzyloxy)-2-methylphenyl)carbamoyl)-4-chlorophenyl)carbamate) or 0.3% DMSO (vehicle control) which were prepared on separate plates were added to the cell plates and incubated for 10 min, and then the cells were treated with thallium stimulus buffer to initiate thallium flux. To measure the efficacy and potency of test compounds, the change in fluorescence intensity (ΔRatio) and % inhibition were calculated using the following equations:
ΔRatio=(fluorescence intensity at 25 seconds after thallium addition)/(average of fluorescent intensity before thallium addition)

Row | IC50 [nM] | SMILES
1 | 6400 | CCOc1ccc(-c2cnc(NC(=O)c3c(Cl)cnn3C3CCN(C(=O)OC(C)(C)C)CC3)c(C)c2)cc1 [Compound 431, tert-butyl 4-(4-chloro-5-((5-(4-ethoxyphenyl)-3-methylpyridin-2-yl)carbamoyl)-1H-pyrazol-1-yl)piperidine-1-carboxylate]
2 | 5520 | Cc1cc(OCc2ccccc2)ccc1NC(=O)c1c(Cl)cnn1CC1CN(C(=O)CC(C)C)CCO1 (centres unmarked) [Compound 429, N-(4-(benzyloxy)-2-methylphenyl)-4-chloro-1-((4-(3-methylbutanoyl)morpholin-2-yl)methyl)-1H-pyrazole-5-carboxamide]
3 | 9300 | Cc1cc(-c2cnn(-c3ccccc3F)c2)cnc1NC(=O)c1c(Cl)cnn1C1CCN(C(=O)OC(C)(C)C)CC1 [Compound 436, tert-butyl 4-(4-chloro-5-((5-(1-(2-fluorophenyl)-1H-pyrazol-4-yl)-3-methylpyridin-2-yl)carbamoyl)-1H-pyrazol-1-yl)piperidine-1-carboxylate]
4 | 1680 | CCC(=O)N1CCC(n2ncc(Cl)c2C(=O)Nc2ccc(OCc3ccccc3)cc2C)CC1 [Compound 397, N-(4-(benzyloxy)-2-methylphenyl)-4-chloro-1-(1-propionylpiperidin-4-yl)-1H-pyrazole-5-carboxamide]

Same assay, conditions: TREK-1 Thallium (Tl+) flux assay; no *^12 (Method 2) mark on these rows

Row | IC50 [nM] | SMILES
5 | 380 | Cc1cc(OCc2ccccc2)ccc1NC(=O)c1c(Cl)cnn1[C@H]1CC[C@@H](NC(=O)C2COCCO2)CC1 (stereo partly drawn) [Compound 380, 1-(cis-4-(1,4-dioxane-2-carboxamido)cyclohexyl)-N-(4-(benzyloxy)-2-methylphenyl)-4-chloro-1H-pyrazole-5-carboxamide]
6 | 1080 | Cn1nc(Cl)c(C(=O)Nc2ncc(C#Cc3ccccc3)cc2F)c1-c1ccc2c(cnn2C)c1 [Compound 372, 3-chloro-N-(3-fluoro-5-(phenylethynyl)pyridin-2-yl)-1-methyl-5-(1-methyl-1H-indazol-5-yl)-1H-pyrazole-4-carboxamide]
7 | 360 | CC(C)(C#N)Cn1ncc(Cl)c1C(=O)Nc1ncc(C#Cc2ccccc2)cc1F [Compound 234, 4-chloro-1-(2-cyano-2-methylpropyl)-N-(3-fluoro-5-(phenylethynyl)pyridin-2-yl)-1H-pyrazole-5-carboxamide]
8 | 530 | Cc1cc(C#Cc2ccccc2)cnc1NC(=O)c1c(Cl)cnn1CC1(C)CCN(C(=O)C2CC2)CC1 [Compound 295]
9 | 640 | CC(C)(C)OC(=O)N[C@H]1C[C@@H](n2ncc(Cl)c2C(=O)Nc2ncc(C#Cc3ccccc3)cc2F)C1 [Compound 325, tert-butyl (cis-3-(4-chloro-5-((3-fluoro-5-(phenylethynyl)pyridin-2-yl)carbamoyl)-1H-pyrazol-1-yl)cyclobutyl)carbamate]
10 | 1000 | Cc1cc(C#Cc2ccccc2)cnc1NC(=O)c1c(Cl)cnn1CC1CCC(C)(C)O1 (centres unmarked) [Compound 371, 4-chloro-1-((5,5-dimethyltetrahydrofuran-2-yl)methyl)-N-(3-methyl-5-(phenylethynyl)pyridin-2-yl)-1H-pyrazole-5-carboxamide]
11 | 400 | O=C(Nc1ncc(C#Cc2cccs2)cc1F)c1c(Cl)cnn1CCC1CCN(C(=O)C2CC2)CC1 [Compound 250, 4-chloro-1-(2-(1-(cyclopropanecarbonyl)piperidin-4-yl)ethyl)-N-(3-fluoro-5-(thiophen-2-ylethynyl)pyridin-2-yl)-1H-pyrazole-5-carboxamide]
12 | 600 | Cc1cc(-c2cnn(-c3ccc(F)cc3)c2)cnc1NC(=O)c1c(Cl)cnn1C1CCOCC1 [Compound 381, 4-chloro-N-(5-(1-(4-fluorophenyl)-1H-pyrazol-4-yl)-3-methylpyridin-2-yl)-1-(tetrahydro-2H-pyran-4-yl)-1H-pyrazole-5-carboxamide]
13 | 370 | Cc1cc(C#Cc2ccccc2)cnc1NC(=O)c1c(Cl)cnn1C(C)CNC(=O)OC(C)(C)C (centres unmarked) [Compound 239, tert-butyl (2-(4-chloro-5-((3-methyl-5-(phenylethynyl)pyridin-2-yl)carbamoyl)-1H-pyrazol-1-yl)propyl)carbamate]
14 | 920 | CC(C)(C)OC(=O)N1CCCC(Cn2ncc(Cl)c2C(=O)Nc2ncc(C#Cc3ccccc3)cc2F)C1 (centres unmarked) [Compound 365, tert-butyl 3-((4-chloro-5-((3-fluoro-5-(phenylethynyl)pyridin-2-yl)carbamoyl)-1H-pyrazol-1-yl)methyl)piperidine-1-carboxylate]
15 | 360 | Cc1cc(C#Cc2ccccc2)cnc1NC(=O)c1c(Cl)cnn1CC1(F)CCN(C(=O)C(C)C)CC1 [Compound 236, 4-chloro-1-((4-fluoro-1-isobutyrylpiperidin-4-yl)methyl)-N-(3-methyl-5-(phenylethynyl)pyridin-2-yl)-1H-pyrazole-5-carboxamide]

Further lines, the compound ahead of its results:

Row | SMILES | IC50 [nM]
16 | O=C(Nc1ncc(C#Cc2ccccc2)cc1F)c1c(Cl)cnn1-c1ccc2c(c1)OCO2 [Compound 227, 1-(benzo[d][1,3]dioxol-5-yl)-4-chloro-N-(3-fluoro-5-(phenylethynyl)pyridin-2-yl)-1H-pyrazole-5-carboxamide] | 350
17 | Cc1cc(C#Cc2ccccc2)cc(F)c1NC(=O)c1c(Cl)cnn1C[C@@H]1CCOC1 [Compound 200, (S)-4-chloro-N-(2-fluoro-6-methyl-4-(phenylethynyl)phenyl)-1-((tetrahydrofuran-3-yl)methyl)-1H-pyrazole-5-carboxamide] | 310
18 | O=C(Nc1ncc(C#Cc2ccc(F)cc2)cc1F)c1c(Cl)cnn1CC1CCOCC1 [Compound 233, 4-chloro-N-(3-fluoro-5-((4-fluorophenyl)ethynyl)pyridin-2-yl)-1-((tetrahydro-2H-pyran-4-yl)methyl)-1H-pyrazole-5-carboxamide] | 360
19 | Cc1cc(C#Cc2ccccc2)cnc1NC(=O)c1c(Cl)cnn1C1CCN(C(=O)C(C)(C)C)CC1 [Compound 220, 4-chloro-N-(3-methyl-5-(phenylethynyl)pyridin-2-yl)-1-(1-pivaloylpiperidin-4-yl)-1H-pyrazole-5-carboxamide] | 340

Same assay, conditions: TREK-1 Thallium (Tl+) flux assay; values without footnote *12 are Method 1

Row | IC50 [nM] | SMILES
20 | 140 | O=C(Nc1ncc(C#Cc2ccccc2)cc1F)c1c(Cl)cnn1C1CCN(C(=O)CC(F)(F)F)CC1 [Compound 55, 4-chloro-N-(3-fluoro-5-(phenylethynyl)pyridin-2-yl)-1-(1-(3,3,3-trifluoropropanoyl)piperidin-4-yl)-1H-pyrazole-5-carboxamide]
21 | 150 | CCC(=O)N1CCC(n2ncc(Cl)c2C(=O)Nc2ncc(C#Cc3cccs3)cc2F)CC1 [Compound 67, 4-chloro-N-(3-fluoro-5-(thiophen-2-ylethynyl)pyridin-2-yl)-1-(1-propionylpiperidin-4-yl)-1H-pyrazole-5-carboxamide]
22 | 200 | CC(C)C(=O)N[C@H]1CC[C@H](n2ncc(Cl)c2C(=O)Nc2ncc(C#Cc3ccccc3)cc2F)CC1 [Compound 117]
23 | 110 | CC(=O)N1CCC(C(C)n2ncc(Cl)c2C(=O)Nc2ncc(C#Cc3ccccc3)cc2F)CC1 (centres unmarked) [Compound 35, 1-(1-(1-acetylpiperidin-4-yl)ethyl)-4-chloro-N-(3-fluoro-5-(phenylethynyl)pyridin-2-yl)-1H-pyrazole-5-carboxamide]
24 | 220 | CC(=O)N1CC(Cn2ncc(Cl)c2C(=O)Nc2ncc(C#Cc3ccccc3)cc2C)C1 [Compound 135, 1-((1-acetylazetidin-3-yl)methyl)-4-chloro-N-(3-methyl-5-(phenylethynyl)pyridin-2-yl)-1H-pyrazole-5-carboxamide]
25 | 130 | CC(=O)N1CC[C@H](Cn2ncc(Cl)c2C(=O)Nc2ncc(C#Cc3ccccc3)cc2F)[C@H](F)C1 [Compound 48, 1-(((3S,4R)-1-acetyl-3-fluoropiperidin-4-yl)methyl)-4-chloro-N-(3-fluoro-5-(phenylethynyl)pyridin-2-yl)-1H-pyrazole-5-carboxamide]
26 | 190 | CCC(=O)N1CCC(n2ncc(Cl)c2C(=O)Nc2ncc(C#Cc3ccccc3)cc2C)C1 (centres unmarked) [Compound 106, 4-chloro-N-(3-methyl-5-(phenylethynyl)pyridin-2-yl)-1-(1-propionylpyrrolidin-3-yl)-1H-pyrazole-5-carboxamide]
27 | 290 | Cc1cc(C#Cc2ccccc2)cc(F)c1NC(=O)c1c(Cl)cnn1CCCC#N [Compound 185, 4-chloro-1-(3-cyanopropyl)-N-(2-fluoro-6-methyl-4-(phenylethynyl)phenyl)-1H-pyrazole-5-carboxamide]
28 | 130 | O=C(Nc1ncc(C#Cc2ccccc2)cc1F)c1c(Cl)cnn1CC1CCN(C(=O)C2CC2)C1 (centres unmarked) [Compound 43, 4-chloro-1-((1-(cyclopropanecarbonyl)pyrrolidin-3-yl)methyl)-N-(3-fluoro-5-(phenylethynyl)pyridin-2-yl)-1H-pyrazole-5-carboxamide]
29 | 140 | Cc1cc(C#Cc2ccccc2)cnc1NC(=O)c1c(Cl)cnn1CC1CCN(C(=O)C2CC2)CC1 [Compound 52, 4-chloro-1-((1-(cyclopropanecarbonyl)piperidin-4-yl)methyl)-N-(3-methyl-5-(phenylethynyl)pyridin-2-yl)-1H-pyrazole-5-carboxamide]
